Experimental data from patent publication US20230270731A1, “THERAPEUTIC COMPOUNDS AND COMPOSITIONS” (eXIthera Pharmaceuticals, Inc., priority 2019, published 2023).
≈ marks a conversion by molar mass, not a printed value. Read-outs that look alike come from different tables or passages of the source.

What was measured:
[1] = Equilibrium solubility of Compound 1 in common buffers; format: physicochemical; conditions: thermodynamic from solid, read-out: Avg. c(Compound 1, FB), equilibrium solubility
Procedure: The equilibrium solubility of Compound 1 was tested in common buffers (Table 2) at a buffer strength of c(buffer)=200 mM. For this, samples of Compound 1 with c(Compound 1, target)=16 mg/mL were prepared in the different buffer solutions (Table 3), mixed by vortexing and inspected for solid residues. For the cases for which no solid residues were observed the solutions were arbitrarily supplemented with additional solid Compound 1. This process was repeated (hourly observation) until a solid residue remained readily observable. The samples were rotated at room temperature for 24 h.
The equilibrium solubility samples were cleared by centrifugation (table top centrifuge, rcf=16,100×g, 10 min). The supernatant was subjected to HPLC analysis and assayed in triplicates for Compound 1 concentration using the HPLC method described in Example 2. The pH of the supernatant was measured (Table 3).

[2] = pH-dependent stability and pH-rate profile, 10-day, 4° C. and 40° C.; format: physicochemical; conditions: for stability in buffered aqueous solutions: pH=2-8, 0.1 mg/mL, 100 mM buffer, in the dark, 10 days
Procedure: The stability Compound 1 was assessed over a 10-day period at several pH-values pH=2, 3, 4, 5, 6, 7, 8) and at two different temperatures (4° C., 40° C.). Samples of Compound 1 at c(Compound 1)=0.1 mg/mL were prepared in standard buffers (Table 2) at a buffer strength of c(buffer)=100 mM and incubated at either T=4° C. or T=40° C. (exclusion from light during incubation and analysis). The concentration of Compound 1 was assessed in such samples via HPLC analysis at an initial time point (to) and on days 1, 2, 3, 4, 7 and 10 (Δt=day×24 h). The pH was monitored at identical time points during the 10-day period.
Over the 10-day period for both temperatures the pH of the sample solutions (FIG. 2A & FIG. 2B) was monitored and the recovery (R %) of Compound 1 (FIG. 3A & FIG. 3B) was calculated via:
whereas c(Compound 1, theor.)=0.1 mg/mL and c(Compound 1, actual) is determined by HPLC analysis via integration of the Compound 1 parent peak areas.

[3] = Reconstitution and reconstitution stability of the lyophilized Compound 1 drug product; format: physicochemical; conditions: reconstituted drug product
Procedure: The lyophilized Compound 1 drug product was subjected to testing of reconstitution and to stability testing for 6 h after reconstituted with DI water VDIwater=5 mL.
The lyophilization cake readily reconstituted within 10-20 s. The solution during reconstitution appeared quite foamy and contained many bubbles, which cleared within approximately 2 min addition of the reconstitution solution. Residual micro-bubbles on the container wall can be removed by vortexing (2 s) or sonication (2 s). […] The pH of the reconstituted solution was measured with pH=6.81; the osmolality was determined to φ=295 mOsm/kg. The reconstituted solution was practically free of particulates as determined by liquid particle counting (LPC, HIAC: Vsample=5 mL, nruns=4, 1st run discarded, fdilution=10, Vnominal, container=2 mL) with a cumulative count of 3200 particles at a size of 10 μm and 667 particles at a size of 25 μm.
The recovery of Compound 1 was monitored for 24 h after reconstitution to test for the in-use stability of the reconstituted solution (Table 9)

[4] = Compatibility with infusion vehicles (NS, D5W); format: physicochemical
Procedure: The compatibility of the reconstituted Compound 1 formulation with two infusion vehicles, normal saline (NS) and 5% dextrose in water (D5W) was tested after Δt=4 h for two concentration (high/low) at c(Compound 1, target)=0.1 mg/mL and c(Compound 1, target)=1.0 mg/mL and at ambient conditions (Table 10). The average values of % recovery are relative to the dilution of the reconstituted drug product into DI water at to.

[5] = Compatibility with vials and stoppers; format: physicochemical
Procedure: The compatibility of the reconstituted Compound 1 formulation with sterile manufacturing vials and stoppers (Table 17) was tested for a contact time of Δt=1 h at c(Compound 1, target)=10 mg/mL at ambient conditions. The average values of % recovery are relative to the reconstituted drug product that has not been in contact with the tested materials.

[6] = tested on: blood coagulation components (Cardiopulmonary Bypass circuit); format: in vivo
Procedure: The following parameters and endpoints were evaluated in this study: mortality, body weight, physical, clinical pathology parameters (hematology and coagulation), coagulation time, and bioanalytical parameters.
The vehicle and test article were administered via intravenous (IV) infusion once on Day 1 for 135 minutes (initiated 30 minutes prior to starting the Cardiopulmonary Bypass (CPB) and continuing for 105 minutes of CPB). Group 2 animals received a […] IV bolus dose immediately prior to the start of IV infusion. Group 3, 4, and 5 animals received a 10 mg/kg IV bolus dose prior to the start of the IV infusion; with the CPB machine primed with test article at 10 μg/mL.
Infusion of the Compound 1 was started 30 minutes prior to the animal being placed on the CPB pump. The CPB pump was primed with 0.9% saline.
Venous and arterial sheaths were flushed with the Compound 1 at a concentration of 10 μg/mL. An IV bolus dose of the test article was administered immediately prior to the start of the infusion. Infusion of Compound 1 was started 30 minutes prior to the animal being placed on the CPB pump. The CPB […] was primed with 10 μg/mL of the Compound 1 prior to initiation of the CPB pump.
An IV bolus dose of the Compound 1 was administered immediately prior to the start of the infusion. Infusion of Compound 1 was started 30 minutes prior to the animal being placed on the CPB pump.

For `C[C@@H](NC(=O)N1C(=O)[C@H](Cc2ccnc(N)c2)[C@H]1C(=O)O)C1CCCCC1` [Compound 1, (2S,3R)-3-[(2-aminopyridin-4-yl)methyl]-1-{[(1R)-1-cyclohexylethyl]carbamoyl}-4-oxoazetidine-2-carboxylic acid], the solubility thermodynamic at 24 h ([1]; citrate buffer, pH 2.72, aqueous buffer, citric acid/sodium 200 mM, pH (Buffer) 3.00, pH (Meas.) 2.72, room temperature 24 h) was 5960 µg/mL (≈ 15.9 mM), the solubility thermodynamic at 24 h ([1]; citrate buffer, pH 3.74, aqueous buffer, citric acid/sodium 200 mM, pH (Buffer) 4.00, pH (Meas.) 3.74, room temperature 24 h) was 6200 µg/mL (≈ 16.6 mM) and the solubility thermodynamic at 24 h ([1]; pH 1.29, aqueous buffer, phosphoric acid/sodium phosphate 200 mM, pH (Buffer) 2.00, pH (Meas.) 1.29, room temperature 24 h) was 159000 µg/mL (≈ 424 mM). For the same compound, the solubility thermodynamic at 24 h ([1]; pH 4.57, aqueous buffer, acetic acid/sodium acetate 200 mM, pH (Buffer) 5.00, pH (Meas.) 4.57, room temperature 24 h) was 7480 µg/mL (≈ 20 mM), the solubility thermodynamic at 24 h ([1]; pH 6.33, aqueous buffer, sodium phosphate 200 mM, pH (Buffer) 7.00, pH (Meas.) 6.33, room temperature 24 h) was 12000 µg/mL (≈ 32 mM) and the solubility thermodynamic at 24 h ([1]; pH 6.67, aqueous buffer, sodium phosphate 200 mM, pH (Buffer) 8.00, pH (Meas.) 6.67, room temperature 24 h) was 15300 µg/mL (≈ 40.9 mM). For the same compound, the “precipitation of the drug compound” value ([2]; 0.1 mg/mL, pH 2-8, 10 days) was “no precipitation”, the stability/pH-correlation ([2]; pH 2-8, 10 days) was “more stable towards a low pH and less stable towards a higher pH” and the “stability in buffered aqueous solutions” value ([2]; 4° C.) was “stable”. For the same compound, the “stability in buffered aqueous solutions” value ([2]; 40° C.) was “significant degradation”, the “Avg. c(Compound 1, FB, Obs.)” value ([3]; t0) was 9.65 mg/mL and the “pH (Meas.)” value ([3]; t0) was 6.80. For the same compound, the “Avg. c(Compound 1, FB, Obs.)” value ([3]; t = 1 h) was 9.47 mg/mL, the “pH (Meas.)” value ([3]; t = 1 h) was 6.79 and the “Avg. c(Compound 1, FB, Obs.)” value ([3]; t = 2 h) was 9.20 mg/mL. For the same compound, the “pH (Meas.)” value ([3]; t = 2 h) was 6.80, the “Avg. c(Compound 1, FB, Obs.)” value ([3]; t = 4 h) was 9.19 mg/mL and the “pH (Meas.)” value ([3]; t = 4 h) was 6.79. The “Avg. c(Compound 1, FB, Obs.)” value ([3]; t = 6 h) was 9.28 mg/mL, the “pH (Meas.)” value ([3]; t = 6 h) was 6.79 and the “Avg. c(Compound 1, FB, Obs.)” value ([3]; t = 24 h) was 8.99 mg/mL. The “pH (Meas.)” value ([3]; t = 24 h) was 6.85, the “Avg. c(Compound 1, FB, Obs.)” value ([4]; target 0.1 mg/mL, D5W, t = 4 h, ambient) was 0.09 mg/mL and the “Avg. c(Compound 1, FB, Obs.)” value ([4]; target 0.1 mg/mL, NS, t = 4 h, ambient) was 0.09 mg/mL. For the same compound, the “Avg. c(Compound 1, FB, Obs.)” value ([4]; target 0.1 mg/mL, Water, t0) was 0.09 mg/mL, the “Avg. c(Compound 1, FB, Obs.)” value ([4]; target 0.1 mg/mL, Water, t = 4 h, ambient) was 0.09 mg/mL and the “Avg. c(Compound 1, FB, Obs.)” value ([4]; target 1.0 mg/mL, D5W, t = 4 h, ambient) was 0.92 mg/mL. For the same compound, the “Avg. c(Compound 1, FB, Obs.)” value ([4]; target 1.0 mg/mL, NS, t = 4 h, ambient) was 0.92 mg/mL, the “Avg. c(Compound 1, FB, Obs.)” value ([4]; target 1.0 mg/mL, Water, t0) was 0.92 mg/mL and the “Avg. c(Compound 1, FB, Obs.)” value ([4]; target 1.0 mg/mL, Water, t = 4 h, ambient) was 0.92 mg/mL. For the same compound, the “Avg. c(Compound 1, FB, Obs.)” value ([5]; Reconst. Soln., no contact with tested materials) was 9.32 mg/mL, the “Avg. c(Compound 1, FB, Obs.)” value ([5]; Stopper, t = 1 h, target 10 mg/mL, ambient) was 9.28 mg/mL and the “Avg. c(Compound 1, FB, Obs.)” value ([5]; Vial, t = 1 h, target 10 mg/mL, ambient) was 9.28 mg/mL. For the same compound, the “relation between plasma concentration and aPTT” value ([6]; FIG. 12) was “correlation”, the aPTT ([6]; all groups, following cessation of infusion and CPB) was “trended towards baseline values, but remained moderately prolonged” and the “prolongations in aPTT” value ([6]; course during infusion and CPB) was “persisted throughout Compound 1 infusion and CPB”. For the same compound, the morbidity or mortality ([6]; dog, in vivo) was “not associated with any increases in morbidity or mortality”, the survival ([6]; dog, in vivo) was “All animals survived” and the aPTT ([6]; during Compound 1 infusion and prior to CPB, all animals) was “moderately to markedly prolonged”. The “prevention of activation of blood coagulation in components of cardiopulmonary bypass” value ([6]; hound CPB model) was “successful in preventing the activation of blood coagulation”, the “selectivity of anticoagulant effects” value ([6]; hound CPB model, coagulation parameters) was “selective to inhibition of activated partial thromboplastin time (aPTT)” and the “pressure gradient across the membrane oxygenator” value ([6]; multiple doses, IV infusion, CPB run) was “stayed consistent through the entire run”.
